Patent publication US20240158446A1, “CYCLIC COMPOUND HAVING SELECTIVE INHIBITORY ACTION ON KRAS OVER HRAS AND NRAS” (CHUGAI SEIYAKU KABUSHIKI KAISHA, priority 2021, published 2024)
Where two headings read alike, the source gives them in different places.

How the values were obtained:
[1] = system: human lung cancer strain NCI-H441; assay: cells; settings: NCI-H441, 96 h, read-out: NCI-H441 IC50 (nM), NCI-H441 cell proliferation, 4 days, CellTiter-Glo;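 further: cell proliferation inhibition after four days measured by CellTiter-Glo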
[2] = target: GDP-bound HRAS wild-type protein (Homo sapiens, UniProt P01112); assay: Binding to HRAS by surface plasmon resonance (SPR), Single Cycle Kinetics; settings: SPR; for HRAS/KRAS (ratio of KD value for HRAS to KD value for KRAS): GDP-bound HRAS wild-type protein vs GDP-bound KRAS wild-type protein
[3] = target: GDP-bound KRAS wild-type protein (Homo sapiens, UniProt P01116); assay: Binding to KRAS by surface plasmon resonance (SPR), Single Cycle Kinetics; settings: SPR, Single Cycle Kinetics
[4] = target: GDP-bound NRAS wild-type protein (Homo sapiens, UniProt P01111); assay: Binding to NRAS by surface plasmon resonance (SPR), Single Cycle Kinetics; settings: SPR; for NRAS/KRAS (ratio of KD value for NRAS to KD value for KRAS): GDP-bound NRAS wild-type protein vs GDP-bound KRAS wild-type protein
[5] = system: human lung cancer strain NCI-H441; settings: read-out: NCI-H441 cell proliferation inhibitory activity, 50% proliferation inhibitory concentration (IC50 value); NCI-H441, four days, CellTiter-Glo;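 further: cell proliferation inhibition after four days measured by CellTiter-Glo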
[6] = 1:1 binding model, read-out: KD value with respect to GDP-bound KRAS wild-type protein
[7] = GDP-bound KRAS wild-type protein, read-out: KRAS KD

Chain of GDP-bound KRAS wild-type protein (P01116 whole entry): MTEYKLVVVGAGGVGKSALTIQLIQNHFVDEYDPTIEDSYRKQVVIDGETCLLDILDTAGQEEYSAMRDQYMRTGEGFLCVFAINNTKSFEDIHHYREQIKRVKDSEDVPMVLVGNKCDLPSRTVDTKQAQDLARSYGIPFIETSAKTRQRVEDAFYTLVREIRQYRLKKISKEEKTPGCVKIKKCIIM
Chain of GDP-bound NRAS wild-type protein (P01111 whole entry): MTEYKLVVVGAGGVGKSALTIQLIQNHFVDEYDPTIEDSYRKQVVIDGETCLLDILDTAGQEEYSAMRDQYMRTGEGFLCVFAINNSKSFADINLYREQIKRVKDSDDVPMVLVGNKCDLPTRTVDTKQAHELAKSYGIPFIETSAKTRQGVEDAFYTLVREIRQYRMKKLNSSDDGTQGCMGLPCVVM
Chain of GDP-bound HRAS wild-type protein (P01112 whole entry): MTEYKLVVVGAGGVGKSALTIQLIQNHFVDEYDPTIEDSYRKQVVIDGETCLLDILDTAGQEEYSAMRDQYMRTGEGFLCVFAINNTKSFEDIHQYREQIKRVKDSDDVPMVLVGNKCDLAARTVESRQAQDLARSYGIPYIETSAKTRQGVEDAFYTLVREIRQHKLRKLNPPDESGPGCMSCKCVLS

CCC[C@H]1C(=O)N[C@@H]([C@@H](C)CC)C(=O)N(C)CC(=O)N(C)[C@H]2C/C=C\CCN(C2=O)[C@@H](Cc2ccc(C)cc2)C(=O)N(C)CC(=O)N[C@@H](CCc2ccc(C(F)(F)F)c(Cl)c2)C(=O)N2C[C@H](C)C[C@H]2C(=O)NC2(CCC2)C(=O)N(C)[C@@H](C2CCCC2)C(=O)N(C)[C@H](C(=O)N(C)CC)CC(=O)N1C [PP1850]
IC50 [1]: 49.1 nM

CC[C@H](C)[C@@H]1NC(=O)[C@H](CC)N(C)C(=O)C[C@@H](C(=O)N(C)CC)N(C)C(=O)[C@H](C2CCCC2)N(C)C(=O)C2(CCC2)NC(=O)[C@@H]2C[C@H](C)CN2C(=O)[C@H](CCc2ccc(C(F)(F)F)c(OC)c2)NC(=O)CN(C)C(=O)[C@H](Cc2ccc(C)cc2)N2CC/C=C\C[C@@H](C2=O)N(C)C(=O)CN(C)C1=O [PP1853]
IC50 [1]: 30.4 nM

CC[C@H](C)[C@@H]1NC(=O)[C@H](CC(F)F)N(C)C(=O)C[C@@H](C(=O)N(C)C)N(C)C(=O)[C@H](C2CCCC2)N(C)C(=O)C2(CC(C)(C)C2)NC(=O)[C@@H]2C[C@@H](C)CN2C(=O)[C@H](CCc2ccc(C(F)(F)F)c(OC)c2)NC(=O)CN(C)C(=O)[C@H](Cc2ccc(C)cc2)N2CC/C=C\C[C@@H](C2=O)N(C)C(=O)CN(C)C1=O [PP1877]
IC50 [1]: 18.4 nM

CC[C@H](C)[C@@H]1NC(=O)[C@H](CC)N(C)C(=O)C[C@@H](C(=O)N(C)CC)N(C)C(=O)[C@H](C2CCCC2)N(C)C(=O)C2(CC(C)(C)C2)NC(=O)[C@@H]2C[C@@H](C)CN2C(=O)[C@H](CCc2cc(F)c(C(F)(F)F)c(F)c2)NC(=O)CN(C)C(=O)[C@H](Cc2ccc(C)cc2)N2CC/C=C\C[C@@H](C2=O)N(C)C(=O)CN(C)C1=O [PP1884]
IC50 [1]: 17.3 nM

CCC[C@H]1C(=O)N[C@@H]([C@@H](C)CC)C(=O)N2CCC[C@H]2C(=O)N(C)[C@H]2C/C=C\CCN(C2=O)[C@@H](Cc2ccc(C)cc2)C(=O)N(C)CC(=O)N[C@@H](CCc2cc(F)c(C(F)(F)F)c(F)c2)C(=O)N2C[C@H](OCC)C[C@H]2C(=O)N(C)C2(CCC2)C(=O)N(C)[C@@H](C2CCCC2)C(=O)N(C)[C@H](C(=O)N2CCCC2)CC(=O)N1C [PP3117, (1S,4S,10S,13S,17S,20S,26S,28R,32S,38S,42Z)-20-cyclopentyl-32-[2-[3,5-difluoro-4-(trifluoromethyl)phenyl]ethyl]-28-ethoxy-2,14,18,21,24,36-hexamethyl-10-[(1S)-1-methylpropyl]-13-propyl-38-(p-tolylmethyl)-17-(pyrrolidine-1-carbonyl)spiro[2,8,11,14,18,21,24,30,33,36,39-undecazatetracyclo[37.5.1.0^4,8.0^26,30]pentatetracont-42-ene-23,1′-cyclobutane]-3,9,12,15,19,22,25,31,34,37,45-undecone]
HRAS/KRAS (ratio of KD value for HRAS to KD value for KRAS) [2]: A (a compound having 10 or more and less than 20 is denoted as A) | ratio of the KD value with respect to GDP-bound HRAS wild-type protein to the KD value with respect to KRAS [2]: A (a compound having 10 or more and less than 20 is denoted as A) | Kd [3, 6]: 0.15 nM | Kd [3, 7]: 0.15 nM | NRAS/KRAS (ratio of KD value for NRAS to KD value for KRAS) [4]: A (a compound having 10 or more and less than 20 is denoted as A) | ratio of the KD value with respect to GDP-bound NRAS wild-type protein to the KD value with respect to KRAS [4]: A (a compound having 10 or more and less than 20 is denoted as A) | IC50 [5]: 2.6 nM

CCC[C@H]1C(=O)N[C@@H]([C@@H](C)CC)C(=O)N(C)CC(=O)N(C)[C@H]2C/C=C\CCN(C2=O)[C@@H](Cc2ccc(C(F)(F)F)cc2)C(=O)N(C)CC(=O)N[C@@H](CCc2cc(F)c(C(F)(F)F)c(F)c2)C(=O)N2C[C@H](OCC)C[C@H]2C(=O)N(C)C2(CCC2)C(=O)N(C)[C@@H](C2CCCC2)C(=O)N(C)[C@H](C(=O)N2CCCCC2)CC(=O)N1C [PP3118, (2S,8S,12R,14S,20S,23S,27S,30S,36S,38Z)-20-cyclopentyl-8-[2-[3,5-difluoro-4-(trifluoromethyl)phenyl]ethyl]-12-ethoxy-4,16,19,22,26,32,35-heptamethyl-30-[(1S)-1-methylpropyl]-23-(piperidine-1-carbonyl)-27-propyl-2-[[4-(trifluoromethyl)phenyl]methyl]spiro[1,4,7,10,16,19,22,26,29,32,35-undecazatricyclo[34.5.1.0^10,14]dotetracont-38-ene-17,1′-cyclobutane]-3,6,9,15,18,21,25,28,31,34,42-undecone]
HRAS/KRAS (ratio of KD value for HRAS to KD value for KRAS) [2]: B (a compound having 3 or more and less than 10 is denoted as B) | ratio of the KD value with respect to GDP-bound HRAS wild-type protein to the KD value with respect to KRAS [2]: B (a compound having 3 or more and less than 10 is denoted as B) | Kd [3, 6]: 0.12 nM | Kd [3, 7]: 0.12 nM | NRAS/KRAS (ratio of KD value for NRAS to KD value for KRAS) [4]: A (a compound having 10 or more and less than 20 is denoted as A) | ratio of the KD value with respect to GDP-bound NRAS wild-type protein to the KD value with respect to KRAS [4]: A (a compound having 10 or more and less than 20 is denoted as A) | IC50 [5]: 6.7 nM

CCC[C@H]1C(=O)N[C@@H]([C@@H](C)CC)C(=O)N(C)CC(=O)N(C)[C@H]2C/C=C\CCN(C2=O)[C@@H](Cc2ccc(C)cc2)C(=O)N(C)CC(=O)N[C@@H](CCc2cc(F)c(C(F)(F)F)c(F)c2)C(=O)N2C[C@H](OCC)C[C@H]2C(=O)N(C)C2(CCC2)C(=O)N(C)[C@@H](C2CCCC2)C(=O)N(C)[C@H](C(=O)N2CCCCC2)CC(=O)N1C [PP3119, (2S,8S,12R,14S,20S,23S,27S,30S,36S,38Z)-20-cyclopentyl-8-[2-[3,5-difluoro-4-(trifluoromethyl)phenyl]ethyl]-12-ethoxy-4,16,19,22,26,32,35-heptamethyl-30-[(1S)-1-methylpropyl]-23-(piperidine-1-carbonyl)-27-propyl-2-(p-tolylmethyl)spiro[1,4,7,10,16,19,22,26,29,32,35-undecazatricyclo[34.5.1.0^10,14]dotetracont-38-ene-17,1′-cyclobutane]-3,6,9,15,18,21,25,28,31,34,42-undecone]
HRAS/KRAS (ratio of KD value for HRAS to KD value for KRAS) [2]: A (a compound having 10 or more and less than 20 is denoted as A) | ratio of the KD value with respect to GDP-bound HRAS wild-type protein to the KD value with respect to KRAS [2]: A (a compound having 10 or more and less than 20 is denoted as A) | Kd [3, 6]: 0.09 nM | Kd [3, 7]: 0.09 nM | NRAS/KRAS (ratio of KD value for NRAS to KD value for KRAS) [4]: A (a compound having 10 or more and less than 20 is denoted as A) | ratio of the KD value with respect to GDP-bound NRAS wild-type protein to the KD value with respect to KRAS [4]: A (a compound having 10 or more and less than 20 is denoted as A) | IC50 [5]: 3.5 nM

CCC[C@H]1C(=O)N[C@@H]([C@@H](C)CC)C(=O)N(C)CC(=O)N(C)[C@H]2C/C=C\CCN(C2=O)[C@@H](Cc2ccc(C(F)(F)F)cc2)C(=O)N(C)CC(=O)N[C@@H](CCc2cc(F)c(C(F)(F)F)c(F)c2)C(=O)N2C[C@H](OCC)C[C@H]2C(=O)N(C)C2(CCC2)C(=O)N(C)[C@@H](C2CCCC2)C(=O)N(C)[C@H](C(=O)N2CCCC2)CC(=O)N1C [PP3120, (2S,8S,12R,14S,20S,23S,27S,30S,36S,38Z)-20-cyclopentyl-8-[2-[3,5-difluoro-4-(trifluoromethyl)phenyl]ethyl]-12-ethoxy-4,16,19,22,26,32,35-heptamethyl-30-[(1S)-1-methylpropyl]-27-propyl-23-(pyrrolidine-1-carbonyl)-2-[[4-(trifluoromethyl)phenyl]methyl]spiro[1,4,7,10,16,19,22,26,29,32,35-undecazatricyclo[34.5.1.0^10,14]dotetracont-38-ene-17,1′-cyclobutane]-3,6,9,15,18,21,25,28,31,34,42-undecone]
HRAS/KRAS (ratio of KD value for HRAS to KD value for KRAS) [2]: A (a compound having 10 or more and less than 20 is denoted as A) | ratio of the KD value with respect to GDP-bound HRAS wild-type protein to the KD value with respect to KRAS [2]: A (a compound having 10 or more and less than 20 is denoted as A) | Kd [3, 6]: 0.052 nM | Kd [3, 7]: 0.052 nM | NRAS/KRAS (ratio of KD value for NRAS to KD value for KRAS) [4]: AA (a compound having 20 or more is denoted as AA) | ratio of the KD value with respect to GDP-bound NRAS wild-type protein to the KD value with respect to KRAS [4]: AA (a compound having 20 or more is denoted as AA) | IC50 [5]: 1.9 nM

CCC[C@H]1C(=O)N[C@@H]([C@@H](C)CC)C(=O)N(C)CC(=O)N(C)[C@H]2C/C=C\CCN(C2=O)[C@@H](Cc2ccc(C)cc2)C(=O)N(C)CC(=O)N[C@@H](CCc2cc(F)c(C(F)(F)F)c(F)c2)C(=O)N2C[C@H](OCC)C[C@H]2C(=O)N(C)C2(CCC2)C(=O)N(C)[C@@H](C2CCCC2)C(=O)N(C)[C@H](C(=O)N2CCCC2)CC(=O)N1C [PP3121, (2S,8S,12R,14S,20S,23S,27S,30S,36S,38Z)-20-cyclopentyl-8-[2-[3,5-difluoro-4-(trifluoromethyl)phenyl]ethyl]-12-ethoxy-4,16,19,22,26,32,35-heptamethyl-30-[(1S)-1-methylpropyl]-27-propyl-2-(p-tolylmethyl)-23-(pyrrolidine-1-carbonyl)spiro[1,4,7,10,16,19,22,26,29,32,35-undecazatricyclo[34.5.1.0^10,14]dotetracont-38-ene-17,1′-cyclobutane]-3,6,9,15,18,21,25,28,31,34,42-undecone]
HRAS/KRAS (ratio of KD value for HRAS to KD value for KRAS) [2]: A (a compound having 10 or more and less than 20 is denoted as A) | ratio of the KD value with respect to GDP-bound HRAS wild-type protein to the KD value with respect to KRAS [2]: A (a compound having 10 or more and less than 20 is denoted as A) | Kd [3, 6]: 0.043 nM | Kd [3, 7]: 0.043 nM | NRAS/KRAS (ratio of KD value for NRAS to KD value for KRAS) [4]: A (a compound having 10 or more and less than 20 is denoted as A) | ratio of the KD value with respect to GDP-bound NRAS wild-type protein to the KD value with respect to KRAS [4]: A (a compound having 10 or more and less than 20 is denoted as A) | IC50 [5]: 1.5 nM
